Data taken from patent US5852004A, “Drug and pharmaceutical composition for the treatment of lesions of the digestive tract” (Societe Valbiofrance, priority 1994, dated 1998).
Read-outs that look alike come from different tables or passages of the source.

Key:
[1] = molecular target: T1, beta TGF (Homo sapiens, UniProt P01137); test: protection of beta TGF against trypsin, read by inhibition of tritiated thymidine incorporation in CCL64 cells; format: cell-based; settings: 37° C. 10 min
T1 construct: from tissue; host or cells: human blood platelets
T1 sequence (P01137 279-390 limits assumed): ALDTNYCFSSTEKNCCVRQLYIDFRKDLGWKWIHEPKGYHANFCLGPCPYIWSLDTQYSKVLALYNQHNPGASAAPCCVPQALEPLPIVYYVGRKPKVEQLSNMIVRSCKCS
Procedure: In order to measure the capacity of certain CMDBSs to interact with members of the beta TGF family and, by means of this interaction, to protect the beta TGFS, a grading test was devised.
The beta 1 TFG is prepared from human blood platelets according to a protocol described in numerous publications (for example Growth factors and their receptors, 1992, vol 1 pp 419-472, written by A. Roberts and M. Sporn, edited by A. Roberts and M. Sporn, and published by Springer Verlag Berlin) and is commonly used by persons of ordinary skill in the art. The beta TGF biological activity test used in this example is that of the inhibition of CCL64 cells (from the American Tissue Culture Collection). This inhibition is measured by the ability of the beta TGF to inhibit the incorporation of tritiated thymidine in a dose dependent manner in these CCL64 cells stimulated by the FGF or by fetal calf serum according to the protocol described by Van Zolen in Progress in Growth Factor Research, 1990, 2, pp 131 to 152. Two doses of beta TGF are used, one corresponding to the 50% inhibition capacity of the incorporation of tritiated thymidine (defined as the inhibiting activity unit) and the other corresponding to the 100% inhibition capacity.
The final volume of the incubated solution is adjusted to 1 ml and incubation is carried out at 37° C. for a varying length of time (10 minutes in the example described (Table 1)).
20 μl samples […] are taken from each of the incubation reactions and added to CCL64 cells cultivated in 24-well plates, each well containing one milliliter of culture medium according to the aforementioned protocol described by E. Zohlen. In these conditions, the final concentration of beta TGF per well is 1 ng/ml.
The incubation mixture contained 50 ng of beta TGF (in 0.1% bovine serum albumin) and trypsin (500 μg). Mesoglycan or sulodexide or dextran sulfate or dextran or sucrase are used at the dose of 5000 μg.
The beta TGF biological activity is measured as described above after a dilution of 50 times and by using CCL64 cells.

[2] = system: FGF 1; test: potentialization of FGF1 biological activity, tritiated thymidine incorporation in CCL39 cells; format: cell-based
From the text: (§1) The cells used in this example are CCL39 cells from the American Tissue Culture Collection. The conditions concerning culture and the measurement test of FGF biological activity are the same as those described in the publication by Tardieu and coll. in the Journal of Cellular Physiology, 1992. The FGF growth factors used are the FGF 1 and FGF 2 recombinant forms.
(§2) In these experiments, the FGF 1 or 2 is used at a dose corresponding to the effective dose (indicated ED50) in order to induce a stimulation of the biological activity of 50% of the dose inducing the maximum stimulation. The biological activity is measured by the ability to induce an increase of the incorporation of tritiated thymidine in the cells according to protocols extensively described in numerous publications such as the previously mentioned publication by Tardieu et coll. and also in French Patent 2 644 066.
(§3) In addition to this ability to potentialize the biological activity of the FGFs, the HBGFPPs protect the FGFs against thermal degradations and the inactivation induced by the proteolytic action of trypsin (FIGS. 4 and 5). Similarly, these HBGFPPs protect FGF1 and 2 against an inactivation induced by the proteolytic activity of trypsin (FIGS. 5A and 5B).

[3] = system: FGF 2; test: potentialization of FGF2 biological activity, tritiated thymidine incorporation in CCL39 cells; format: cell-based
From the text: as §1, §2, §3

[4] = system: FGF1; test: protection of FGF1 against thermal degradation; format: cell-based; settings: FIG. 3; 20° C. and 37° C., 1, 7, 15, 30 days
Procedure: (§4) (a) and 37° C. (b) for 1, 7, 15, 30 days. The measurement of the biological activity presented in abscissa corresponds to the stimulation unit values (ED50) of the incorporation of tritiated thymidine in CCL39 cells.

[5] = system: FGF2; test: protection of FGF2 against thermal degradation; format: cell-based; settings: FIG. 4; 20° C. and 37° C., 1, 7, 15, 30 days
Procedure: as §4

[6] = system: 125I-FGF1; test: protection of 125I-FGF1 against proteolytic degradation by trypsin (gel, autoradiography); format: biochemical; settings: FIG. 5A, 37° C.
Procedure: Proteolytic digestion was carried out at 37° C. and the samples were separated by 18% polyacrylamide gel electrophoresis. The gels are dried and autoradiographed. The first track contains the 125I-FGF1 on its own.

[7] = system: 125I-FGF2; test: protection of 125I-FGF2 against proteolytic degradation by trypsin (gel, autoradiography); format: biochemical; settings: FIG. 5B, 37° C.
From the text: The arrangement of the tracks is identical to that presented for the ^125 I-FGF1 in FIG. 5A.

[8] = system: FGF; test: semi-quantitative evaluation of FGF protection against trypsin (densitometry of radio-labelled FGF); format: biochemical; settings: FGF + trypsin + polymer; radio-labelled FGF found vs quantity deposited
Procedure: As described above, a constant quantity of radioactive FGF is incubated under various conditions. After autoradiography of the reaction products, the non degraded quantity of radioactive FGF is quantified by densitometry. The values correspond to the percentage of radio-labelled FGF found compared to the quantity deposited at the start of reaction (Table 5).

[9] = system: FGF; settings: Tardieu et al. 1992; cited from earlier work
[10] = system: colitis induced by acetic acid; test: colitis induced by acetic acid; format: in vivo, Sprague Dawley male rats; settings: for Alteration score: per os twice a day for three days, score 72 hours after acetic acid, mean ± standard error
Procedure: Groups of 6 Sprague Dawley male rats weighing approximately 200 g are placed in hydric fasting 24 hours before the test. On the day of the test, the animals are anesthetized with pentobarbital (30 mg/kg) by intraperitoneal route. After laparotomy, a colic instillation of 2 ml of 5% acetic acid is performed 2 cm from the caecum. The acetic acid is left in contact for 10 seconds and the colon is then rinsed by 3 ml of saline phosphate buffer (PBS) at pH 7. The wound is then closed. The animals are sacrificed 72 hours later by cervical elongation. The colic alterations are noted on the following scale:
2: superficial necrosis of the mucosa
4: major necrosis of the mucosa with edema
A third group receives sucralfate (marketed under the name of ULCAR Pharmaceutical Laboratories Fabre). The supplier's recommended dose is used (500 mg/kg, i.e. 100 mg per rat) administered orally twice a day for three days.
The mean and the standard error were calculated for each batch of animals. Statistical comparison is performed using White's non parametric test compared to the control.

[11] = system: anastomosis of the rectocolic junction
Procedure: Male Wistar rats (Wi/Wi, Ico, Iffa Credo France), weighing 250 to 300 g are anesthetized with sodic pentobarbital. A subumbilical midline laparotomy is performed over 1.5 cm. The rectocolic junction is individualized and then sectioned with bistoury. […] The anastomosis is carried out according to a termino-terminal mode in a plane by five separate stitches of polyglactine 910 thread, diameter 6/0. The knots are made of 6 loops. Parietal closure is performed in two planes. The rats are divided into two groups of 7 rats. The experiments are conducted in double blind. Samples are taken on the 2nd, 4th and 7th days after the operation. The quality of the healing is studied by measuring the rupture pressure of the anastomosis, in millimeters of mercury. The colon is sectioned 2 cm on either side of the anastomosis, one end being connected to a self-pushing syringe which injects water at a low, constant rate, and the other end being linked to a manometer. Pressure is recorded continuously on a reel of paper. The rupture pressure is determined by analyzing the tracing.

[12] = system: complement system; settings: according to Mauzac et al.
[13] = system: trypsin; test: enzymatic activity of trypsin on substrate S87
Procedure: The enzymatic activity of trypsin was measured by spectrophotometric absorption of the transformation product of S 87 versus incubation time.

[14] = beta TGF 50 ng + polymer 5000 μg + trypsin 500 μg
[15] = beta TGF 50 ng + polymer 5000 μg, no trypsin
[16] = 10 μg/ml of sulodexide or 20 μg/ml of heparin, CCL39 cells

## heparin
[1]; [14]
  % inhibiting activity of the incorporation of tritiated thymidine in CCL64 cells: 10%
[1]; [15]
  % inhibiting activity of the incorporation of tritiated thymidine in CCL64 cells: 100%
[2]; [16]
  ED50 of FGF 1 in the presence of polymer: 0.4 ng/mL
[2]; FIG. 2A, 20 μg heparin, 10 μg mesoglycan or 10 μg sulodexide
  potentialization of the biological activity of FGF1: potentialization
[3]; [16]
  ED50 of FGF 2 in the presence of polymer: 0.2 ng/mL
[3]; FIG. 2B, 20 μg heparin, 10 μg mesoglycan or 10 μg sulodexide
  potentialization of the biological activity of FGF2: potentialization
[4]
  protective effect against thermal degradation of FGF1: protective effect
[5]
  protective effect against thermal degradation of FGF2: protective effect
[6]
  protective effect against proteolytic degradation of 125I-FGF1: protective effect
[7]
  protective effect against proteolytic degradation of 125I-FGF2: protective effect
[8]
  PROTECTION (in %) of the FGF: 100%
[9]
  protection of FGFs against proteolysis induced by trypsin: provides protection against proteolysis induced by trypsin

## sucralfate [reference compound]
[10]
  Alteration score: 2.25 ± 0.48
[10]; rat, in vivo
  effect on the healing of the ulcers: no significant effect

## carboxymethyl dextran benzylamide sulfonate [CMDBS]
[1]; [14]
  % inhibiting activity of the incorporation of tritiated thymidine in CCL64 cells: 75%
[1]; [15]
  % inhibiting activity of the incorporation of tritiated thymidine in CCL64 cells: 100%
[11]; DAY 2
  Rupture pressure, mean: 67.28 mm of Hg
[11]; DAY 4
  Rupture pressure, mean: 144.8 mm of Hg
[11]; Day 4
  increased resistance vs untreated: about 10%
[11]; Day 7
  difference between treated and untreated resistances: no longer any difference
[10]
  Alteration score: 0.70 ± 0.37
[10]; p≤0.05
  reduction of the seriousness of the colic lesions: about 75%
[12]
  anticomplement activity, CH50: 1.1 µg
[13]
  inhibiting power on the activity of trypsin: no inhibiting power
[13]; trypsin 10 ug/ml + S87 + 5 μg/ml CMDBS
  trypsin activity on S87: 100
[13]; trypsin + S87 + 50 μg/ml CMDBS
  trypsin activity on S87: 100
[13]; trypsin + S87 + 500 μg/ml CMDBS
  trypsin activity on S87: 100

B1: STBI: trypsin inhibitor originating from soya, from Sigma (protein, UniProt P01070 25-205, looked up)
Trypsin inhibitor A: DFVLDNEGNPLENGGTYYILSDITAFGGIRAAPTGNERCPLTVVQSRNELDKGIGTIISSPYRIRFIAEGHPLSLKFDSFAVIMLCVGIPTEWSVVEDLPEGPAVKIGENKDAMDGWFRLERVSDDEFNNYKLVFCPQQAEDDKCGDIGISIDHDDGTRRLVVSKNKPLVVQFQKLDKESL
[13]; trypsin + S87 + trypsin inhibitor
  trypsin activity on S87: 0
